Structures can show the parent of a compound that is named as a salt.
Key:
[1] = hygroscopicity of the dihydrochloride salt (stated in words, no method); format: physicochemical; conditions: shows variable stoichiometry
[2] = solubility of the free base (stated in words, no method); format: physicochemical; conditions: said to be therefore not readily bioavailable
[3] = biological target: 5-HT1B receptor (Homo sapiens, UniProt P28222); experiment: antagonism of the 5-HT1B receptor, selectivity comparison (stated in words, no method); format: biochemical; conditions: better antagonist of 5-HT1A than of 5-HT1B
[4] = biological target: T1, 5-HT1A receptor (Homo sapiens, UniProt P08908); experiment: antagonism of the 5-HT1A receptor (stated in words, no method); format: biochemical
T1 sequence (P08908 1-422): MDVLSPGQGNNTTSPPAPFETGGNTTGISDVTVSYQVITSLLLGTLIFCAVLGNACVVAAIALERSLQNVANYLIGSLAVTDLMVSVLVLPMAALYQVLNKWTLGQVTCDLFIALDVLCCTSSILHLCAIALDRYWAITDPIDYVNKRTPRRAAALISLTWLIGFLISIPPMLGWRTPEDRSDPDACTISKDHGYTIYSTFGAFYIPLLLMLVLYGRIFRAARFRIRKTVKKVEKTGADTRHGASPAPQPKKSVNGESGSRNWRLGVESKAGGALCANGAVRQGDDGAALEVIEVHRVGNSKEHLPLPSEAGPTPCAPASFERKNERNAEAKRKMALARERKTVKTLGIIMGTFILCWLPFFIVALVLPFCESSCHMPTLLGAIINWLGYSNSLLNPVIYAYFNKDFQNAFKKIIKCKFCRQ

Sequence of 5-HT1B receptor (P28222 whole entry): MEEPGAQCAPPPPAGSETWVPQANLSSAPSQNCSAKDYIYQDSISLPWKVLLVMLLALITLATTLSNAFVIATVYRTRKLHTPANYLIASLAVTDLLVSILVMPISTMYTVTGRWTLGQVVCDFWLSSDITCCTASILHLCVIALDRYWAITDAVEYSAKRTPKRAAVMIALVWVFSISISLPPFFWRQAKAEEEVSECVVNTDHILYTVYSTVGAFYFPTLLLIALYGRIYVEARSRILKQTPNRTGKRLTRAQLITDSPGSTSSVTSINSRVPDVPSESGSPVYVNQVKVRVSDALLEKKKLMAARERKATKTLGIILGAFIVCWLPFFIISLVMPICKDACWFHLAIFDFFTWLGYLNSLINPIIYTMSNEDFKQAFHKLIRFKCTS

Q: Which hygroscopicity [1] does the source give for `Cc1ccc2c(N3CCN(CCc4c(C)ccc5c4CCc4c(C(N)=O)ncn4-5)CC3)cccc2n1` [dihydrochloride salt, 7-methyl-6-{2-[4-(2-methyl-5-quinolinyl)-1-piperazinyl]ethyl}-4,5-dihydroimidazo[1,5-a]quinoline-3-carboxamide] here?
A: hygroscopic

Q: With `Cc1ccc2c(N3CCN(CCc4c(C)ccc5c4CCc4c(C(N)=O)ncn4-5)CC3)cccc2n1` [free base, 7-methyl-6-{2-[4-(2-methyl-5-quinolinyl)-1-piperazinyl]ethyl}-4,5-dihydroimidazo[1,5-a]quinoline-3-carboxamide] as the compound, how does the solubility [2] read?
A: insoluble

Q: Which results are given for `Cc1ccc2c(N3CCN(CCc4c(C)ccc5c4CCc4c(C(N)=O)ncn4-5)CC3)cccc2n1.O.O=C(O)/C=C\C(=O)O` [salt of the invention, 7-methyl-6-{2-[4-(2-methyl-5-quinolinyl)-1-piperazinyl]ethyl}-4,5-dihydroimidazo[1,5-a]quinoline-3-carboxamide monomaleate monohydrate]?
A: selectivity for the 5-HT1A receptor over the 5-HT1B receptor [3]: high selectivity; antagonist of the 5-HT1A receptor [4]: effective antagonist

Reference: patent US20100317672A1, “Monomaleate Monohydrate Salt of a 5HT1A Receptor Antagonist” (GLAXO GROUP LIMITED, priority 2008, published 2010)
